Measured values as given in patent publication US10301320B2, “Compositions and methods of modulating 15-PGDH activity” (CASE WESTERN RESERVE UNIVERSITY, priority 2012, dated 2019).
Where two headings read alike, the source gives them in different places.

Target: recombinant 15-PGDH protein (Homo sapiens (Human), UniProt P15428)
Test: Inhibition of enzymatic activity of recombinant 15-PGDH in vitro;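 further: activity of recombinant human 15-PGDH assayed in vitro using PGE2 as the substrate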
Type: biochemical
Settings: read-out: Enzyme inhibition % ([…]), recombinant 15-PGDH, […] compound
[1] = read-out: Enzyme inhibition % (2.5 μM)
[2] = read-out: Enzyme inhibition % (7.5 μM)

Sequence of recombinant 15-PGDH protein (P15428 whole entry): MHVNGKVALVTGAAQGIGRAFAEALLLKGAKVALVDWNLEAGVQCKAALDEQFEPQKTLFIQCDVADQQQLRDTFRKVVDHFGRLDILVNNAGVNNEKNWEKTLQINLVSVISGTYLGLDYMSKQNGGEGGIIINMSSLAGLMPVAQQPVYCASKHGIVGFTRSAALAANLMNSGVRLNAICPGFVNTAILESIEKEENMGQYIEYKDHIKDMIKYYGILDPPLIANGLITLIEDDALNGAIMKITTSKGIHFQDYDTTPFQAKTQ

Compound	inhibition at […] [1] [%]	inhibition at […] [2] [%]
COc1ccc(OC)c(N(CC(=O)Nc2ccccn2)S(=O)(=O)c2ccccc2)c1 [SW202941]	10.9	35.6
COc1ccc(OC)c(N(CC(=O)N2CCCCCC2)S(=O)(=O)c2ccccc2)c1 [SW208000]	5.82	12.5
COc1ccc(OC)c(N(CC(=O)Nc2ccccc2Cl)S(=O)(=O)c2ccccc2)c1 [SW202987]	4.61	6.13
COc1ccc(S(=O)(=O)N(CC(=O)Nc2cccnc2)c2cc(C(F)(F)F)ccc2C(F)(F)F)cc1 [SW208008]	58.7	70.9
COc1ccc(OC)c(N(CC(=O)Nc2cccnc2)S(=O)(=O)c2ccccc2C#N)c1 [SW202945]	8.83	11.1
COc1ccc(OC)c(N(CC(=O)Nc2cccnc2Cl)S(=O)(=O)c2ccccc2)c1 [SW202973]	3.3	13.6
COc1ccc(OC)c(N(CC(=O)Nc2cccnc2)S(=O)(=O)c2ccccc2C(F)(F)F)c1 [SW202944]	28.3	57.8
COc1ccc(OC)c(N(CC(=O)N(C)c2cccnc2)S(=O)(=O)c2ccccc2)c1 [SW203686]	14.9	34.2
COc1ccc(OC)c(N(CC(=O)N2CCCC2)S(=O)(=O)c2ccccc2)c1 [SW208001]	21.8	27.7
CNC(=O)CN(c1cc(OC)ccc1OC)S(=O)(=O)c1ccccc1 [SW203682]	15.7	36.2
COc1ccc(OC)c(N(CC(=O)OC(C)C)S(=O)(=O)c2ccccc2)c1 [SW202971]	-0.72	-13.2
COc1ccc(OC)c(N(CC(=O)N2CCCc3ccccc32)S(=O)(=O)c2ccccc2)c1 [SW208006]	15.7	24.8
CCOC(=O)CN(c1cc(OC)ccc1OC)S(=O)(=O)c1ccccc1 [SW202951]	-15.4	-8.59
COc1ccc(S(=O)(=O)N(CC(=O)Nc2ccncc2)c2cc(OC)ccc2OC)cc1 [SW202989]	81.3	89.9
COc1ccc(OC)c(N(CC(=O)N2CCc3ccccc32)S(=O)(=O)c2ccccc2)c1 [SW208003]	15.2	20.9
COc1ccc(OC)c(N(CC(=O)Nc2ccncc2F)S(=O)(=O)c2ccccc2)c1 [SW208004]	52.3	57
COc1ccc(OC)c(N(CC(=O)OC(C)(C)C)S(=O)(=O)c2ccccc2)c1 [SW202979]	3.92	6.24
COc1ccc(OC)c(N(CC(=O)Nc2ccccc2C)S(=O)(=O)c2ccccc2)c1 [SW202975]	-14.8	4.53
COc1ccc(OC)c(N(CC(=O)Nc2cccnc2)S(=O)(=O)c2ccccc2C)c1 [SW202943]	-7.42	21.8
COc1ccc(OC)c(N(CC(=O)Nc2cncc(C)c2)S(=O)(=O)c2ccccc2)c1 [SW202974]	-4.42	24.9
COc1ccc(OC)c(N(CC(=O)Nc2cccnc2)C(C)=O)c1 [SW202952]	29	57
CCCOC(=O)CN(c1cc(OC)ccc1OC)[S@SP3](=O)(=O)c1ccccc1 [SW202986]	-2.22	2.58
COc1ccc(OC)c(N(CC(=O)Nc2ccc(Cl)nc2)S(=O)(=O)c2ccccc2)c1 [SW202970]	17.5	48
COc1ccc(OC)c(N(CC(=O)Nc2cccnc2)S(=O)(=O)c2cccc(C)c2)c1 [SW203684]	36.4	64.7
COc1ccc(OC)c(CN(CC(=O)Nc2cccnc2)S(=O)(=O)c2ccccc2)c1 [SW203688]	13.1	40
COc1ccc(OC)c(N(CC(N)=O)S(=O)(=O)c2ccccc2)c1 [SW131635]	11.8	35.4

Continued, values first:

inhibition at […] [1] [%]	inhibition at […] [2] [%]	Compound
12.5	34.4	COc1ccc(OC)c(N(CC(=O)Nc2cccnc2)S(=O)(=O)c2ccccc2Cl)c1 [SW202949]
36.8	64.9	COc1ccc(OC)c(N(CC(=O)Nc2cnccn2)S(=O)(=O)c2ccccc2)c1 [SW203681]
7.87	29.8	COc1cccc(NC(=O)CN(c2cc(OC)ccc2OC)S(=O)(=O)c2ccccc2)c1 [SW202976]
15.1	33.5	COc1ccc(OC)c(N(CC(=O)Nc2ccccc2)S(=O)(=O)c2ccccc2)c1 [SW203687]
8.81	15.1	COc1ccc(OC)c(N(CC(=O)Nc2cccnc2)S(=O)(=O)c2c(C)cc(C)cc2C)c1 [SW202953]
28.3	56.7	COc1ccc(OC)c(NCC(=O)Nc2cccnc2)c1 [SW202948]
6.02	9.88	COc1ccc(OC)c(N(CC(=O)Nc2cccnc2)S(=O)(=O)c2ccccc2OC(F)(F)F)c1 [SW202954]
52.7	75.6	COc1ccc(OC)c(N(CC(=O)Nc2ccncc2)S(=O)(=O)c2ccccc2)c1 [SW202938]
44.7	61.4	COc1ccc(OC)c(N(CC(=O)Nc2ccnc(C)c2)S(=O)(=O)c2ccccc2)c1 [SW202966]
-4.19	1.44	COC(=O)CN(c1cc(OC)ccc1OC)S(=O)(=O)c1ccccc1 [SW202980]
-12.2	-10.5	COc1ccc(OC)c(N(CC(=O)O)S(=O)(=O)c2ccccc2)c1 [SW122063]
-11.6	0.94	COc1ccc(OC)c(N(CC(=O)Nc2cnccc2C)S(=O)(=O)c2ccccc2)c1 [SW202967]
81.6	89.8	COc1ccc(OC)c(N(CC(=O)Nc2ccnc(Cl)c2)S(=O)(=O)c2ccccc2)c1 [SW202946]
23.4	57.1	COc1ccc(OC)c(N(CC(=O)Nc2cncnc2)S(=O)(=O)c2ccccc2)c1 [SW203683]
-7.09	0.78	COc1ccc(OC)c(N(CC(=O)Nc2cccnc2C)S(=O)(=O)c2ccccc2)c1 [SW202968]
-14.7	-6	COc1ccc(OC)c(N(C(C)C(=O)Nc2cccnc2)S(=O)(=O)c2ccccc2)c1 (stereo not shown) [SW202991]

inhibition at […] [1] [%]	inhibition at […] [2] [%]	Compound
46.3	56.4	COc1ccc(OC)c(N(CC(=O)Nc2cccnc2)S(=O)(=O)c2ccc(C(C)=O)cc2)c1 [SW202950]
23.1	35.2	COc1ccc(OC)c(N(CC(=O)N2CCCCC2)S(=O)(=O)c2ccccc2)c1 [SW131633]
13.8	30.9	COc1ccc(OC)c(N(CC(=O)Nc2cccc(Cl)c2)S(=O)(=O)c2ccccc2)c1 [SW202985]
53.5	78.3	COc1ccc(OC)c(N(CC(=O)Nc2cccnc2)S(=O)(=O)c2ccc(C)cc2)c1 [SW202939]
2.62	–	COc1ccc(OC)c(N(CC(=O)Nc2nccs2)S(=O)(=O)c2ccccc2)c1 [SW203691]
44.1	52	COc1ccc(OC)c(N(CC(=O)Nc2ccnc(F)c2)S(=O)(=O)c2ccccc2)c1 [SW208005]
11.3	33.1	COc1ccc(OC)c(N(CC(=O)Nc2ccccc2OC)S(=O)(=O)c2ccccc2)c1 [SW202965]
34.7	59.2	COc1ccc(OC)c(N(CC(=O)N2CCCC2=O)S(=O)(=O)c2ccccc2)c1 [SW208002]
44.3	73.3	COc1ccc(OC)c(N(CC(=O)Nc2ccnnc2)S(=O)(=O)c2ccccc2)c1 [SW203685]
-6.29	-2.94	COc1ccc(OC)c(N(CC(=O)Nc2cc(C)cnc2Cl)S(=O)(=O)c2ccccc2)c1 [SW202972]
22.9	47.2	COc1ccc(OC)c(N(CC(=O)Nc2cncc(Cl)c2)S(=O)(=O)c2ccccc2)c1 [SW202990]
28.8	59.2	COc1ccc(OC)c(N(CC(=O)Nc2cccnc2)S(=O)(=O)c2ccccc2F)c1 [SW202947]
10.3	33.7	COc1ccc(OC)c(N(CC(=O)Nc2ccc(C)nc2)[S@SP3](=O)(=O)c2ccccc2)c1 [SW202988]
0.91	9.43	COc1ccc(OC)c(N(CC(=O)Nc2cccc(C)c2)S(=O)(=O)c2ccccc2)c1 [SW202969]
4.14	3.12	COc1ccc(OC)c(N(CC(=O)OC2CCCCC2)S(=O)(=O)c2ccccc2)c1 [SW202978]
34.8	62.1	COc1ccc(OC)c(N(CC(=O)Nc2cccnn2)S(=O)(=O)c2ccccc2)c1 [SW203680]
